Measurements taken from patent US20110003767A1, “Inhibitors of Acetyl-CoA Carboxylase for Treatment of Neuronal Hypometabolism” (NEUERA PHARMACEUTICALS, INC., priority 2007, published 2011).
≈ marks a conversion by molar mass, not a printed value. Entries after “also recorded” stand apart in the source; their conditions may differ. Like-named read-outs stand apart in the source and are kept apart here. Values belong to the compound of their own block, whether it stands above or below them.

What was measured:
[1] = test system: Acetyl-CoA carboxylase (ACC), CT (carboxyltranferase) reaction; conditions: cited from earlier work
Solubility of AC-8632 = type: physicochemical; conditions: for solubility: organic solvent or mixture
Protocol: (§1) Purpose: Determine blood levels of ketone bodies after oral (po) and intraperitoneal (ip) dosing of TOFA at different time points in the mouse. Animals: 75 ICR male mice 6 to 7 weeks old were used. Each mouse weighed between 20-30 grams. General Study Design: Animals (housed 3/cage) were acclimated for at least 3 days prior to dosing. Mice were given either a single po dose (ranging from 0.5 mg/kg, to 5 mg/kg) of compound, or a single ip dose (1 mg/kg). Animals were anesthetized for blood collection at the times 0.5, 1, 2 and 3 hours. Whole blood (˜0.4 mls) was collected via cardiac puncture and collected into sodium heparin (Na Heparin, 1:9 ratio) anticoagulant. Blood was centrifuged for 8 minutes at 13,000 rpm to isolate plasma. The plasma was transferred into pre-labeled, color-coded eppendorf tubes and frozen at −70° C. […] Plasma levels of beta-hydroxybutyrate (BHB) were determined using a beta-hydroxybutyrate detection kit following manufacturer's directions (StanBio Inc.). Materials: Compound, mouse gavage needles, vehicle, Isoflurane, 51 1 cc syringes w/26 g needles for blood collection, 63 eppendorf tubes for blood collection, 63 eppendorf tubes for plasma storage, centrifuge, container for sample storage, container for plasma shipment w/dry ice. AC-8632 (5-(tetradecyloxy)-2-furan-carboxylic acid (TOFA)) is a white crystalline solid, 100% active compound by weight. It is insoluble in aqueous solutions. It is soluble in ethanol (1 mg/ml), DMSO (2 mg/ml) and DMF (10 mg/ml). For maximum solubility in aqueous buffers, AC-8632 should first be dissolved in DMF and then diluted with the aqueous buffer of choice. AC-8632 was solubilized at a concentration of 0.5 mg/ml in a 1:1 solution of DMF::PBS (pH 7.2). For ip treatment, AC-8632 was mixed with DMSO at 2 mg/ml. Results: AC-8632 (TOFA) elevated serum BHB levels at each dose from 0.5 mg-kg to 5 mg/kg. Levels of BHB continued to rise during the 3 hour time period with highest levels present at the 3 hour time point. […] Both po and ip dosing led to elevation of plasma BHB at the 3 hour time point.

[2] = test system: plasma beta-hydroxybutyrate (BHB); assay: Mouse pharmacokinetic (PK) study: plasma BHB after oral (po) and intraperitoneal (ip) dosing of TOFA; type: in vivo; conditions: for Mean BHB levels: mouse plasma
Protocol: as §1

MPTP lesioned mice = assay: Neuroprotective effects of an ACC inhibitor in MPTP lesioned mice; type: in vivo; conditions: MPTP lesioned C57BL6 mice, oral gavage 0.001-5 mg/kg/day
Protocol: Neuroprotective effects of an ACC inhibitor in MPTP lesioned mice. 1-methyl-4-phenyl-1,2,3,6-tetrahydropyridine (MPTP), blocks complex I (NADH-ubiquinone oxidoreductase) of the mitochondrial electron transport chain, and causes typical symptoms of Parkinson's disease (PD) and the loss of dopaminergic neurons. C57BL6 mice receive daily orally gavage of CP-610431 at doses ranging from 0.001-5 mg/kg/day for seven days before they are lesioned with MPTP. During the 7 days of MPTP treatment animals will continue treatment with compound 1 or with a placebo. At the end of seven days animals are tested for behavioral effects of MPTP treatment and histopathology is performed.
Three groups of 10 animals are used for this experiment. Group 1 is treated with CP-610431 and lesioned with MPTP, Group 2 is treated with placebo and lesioned with MPTP, and Group 3 is treated with placebo and sham lesioned. After seven days of MPTP treatment behavior and motor skills are tested on all mice. Three tests are used to assess protective behavioral effects: Open Field behavior, Beam Walking test, and Rota Rod test. […]
Dopamine histopathology is immunohistochemically evaluated comparing tyrosine-hydroxylase-positive (TH+) neurons in the substantia nigra density of TH+ nerve terminals in the striatum on the lesioned side of drug treated and control animals. […]

[3] = test system: plasma beta-hydroxybutyrate (BHB); assay: Mouse pharmacokinetic (PK) study of AC-0417-9: plasma BHB after oral dosing; type: in vivo; conditions: single po dose of 3 g/kg
Protocol: Purpose: Determine blood levels of ketone bodies after oral dosing of AC-0417-9 (3,3-Dimethylhexanoate, monoglyceride) at different time points in the mouse. Animals: 12 ICR male mice 6 to 7 weeks old were used. Each mouse weighed between 20-30 grams. General Study Design: Animals (housed 3/cage) were acclimated for at least 3 days prior to dosing. Mice were given a single po dose of 3 g/kg. Animals were anesthetized for blood collection at the times 0.5, 1, 2 and 3 hours. Whole blood (˜0.4 mls) was collected via cardiac puncture and collected into sodium heparin (Na Heparin, 1:9 ratio) anticoagulant. Blood was centrifuged for 8 minutes at 13,000 rpm to isolate plasma. The plasma was transferred into pre-labeled, color-coded eppendorf tubes and frozen at −70° C. […] Plasma levels of beta-hydroxybutyrate (BHB) were determined using a beta-hydroxybutyrate detection kit following manufacturer's directions (StanBio Inc.). Materials: Compound, mouse gavage needles, vehicle, Isoflurane, 1 cc syringes w/26 g needles for blood collection, eppendorf tubes for blood collection, eppendorf tubes for plasma storage, centrifuge, container for sample storage, container for plasma shipment w/dry ice. AC-0417-9 is a clear liquid, 100% active compound by weight. […] Levels of BHB continued to rise during the 3 hour time period with highest levels present at the 3 hour time point.

Structure (SMILES): O=C(c1c2ccccc2cc2ccccc12)N1CCC(N2CCC[C@@H](C(=O)N3CCOCC3)C2)CC1 [CP-640186, [(3R)-1-[1-(anthracene-9-carbonyl)piperidin-4-yl]piperidin-3-yl]-morpholin-4-ylmethanone]
inhibition of the CT reaction of ACC (in words) [1]: potent, reversible, isozyme-nonselective inhibitors

solubility (Solubility of AC-8632; DMF, read-out: solubility in DMF): 10000 µg/mL (≈ 30.8 mM)
solubility (Solubility of AC-8632; DMSO, read-out: solubility in DMSO): 2000 µg/mL (≈ 6.16 mM)
solubility in aqueous solutions (Solubility of AC-8632; aqueous solutions): insoluble
solubility (Solubility of AC-8632; ethanol, read-out: solubility in ethanol): 1000 µg/mL (≈ 3.08 mM)
Structure (SMILES): CCCCCCCCCCCCCCOc1ccc(C(=O)O)o1 [AC-8632, 5-(tetradecyloxy)-2-furan-carboxylic acid]
Mean BHB levels ([2]; 0.5 mg/kg po, 0 hr): 0.1353 mM
Mean BHB levels ([2]; 0.5 mg/kg po, 0.5 hr): 0.2087 mM
Mean BHB levels ([2]; 0.5 mg/kg po, 1 hr): 0.236 mM
Mean BHB levels ([2]; 0.5 mg/kg po, 2 hr): 0.2427 mM
Mean BHB levels ([2]; 0.5 mg/kg po, 3 hr): 0.3473 mM
Mean BHB levels ([2]; 1 mg/kg ip, 0 hr): 0.1353 mM
Mean BHB levels ([2]; 1 mg/kg ip, 0.5 hr): 0.1723 mM
Mean BHB levels ([2]; 1 mg/kg ip, 1 hr): 0.177 mM
Mean BHB levels ([2]; 1 mg/kg ip, 2 hr): 0.209 mM
Mean BHB levels ([2]; 1 mg/kg ip, 3 hr): 0.2163 mM
Mean BHB levels ([2]; 1 mg/kg po, 0 hr): 0.1353 mM
Mean BHB levels ([2]; 1 mg/kg po, 0.5 hr): 0.2093 mM
Mean BHB levels ([2]; 1 mg/kg po, 1 hr): 0.2187 mM
Mean BHB levels ([2]; 1 mg/kg po, 2 hr): 0.2827 mM
Mean BHB levels ([2]; 1 mg/kg po, 3 hr): 0.2973 mM
Mean BHB levels ([2]; 2 mg/kg po, 0 hr): 0.1353 mM
Mean BHB levels ([2]; 2 mg/kg po, 0.5 hr): 0.2153 mM
Mean BHB levels ([2]; 2 mg/kg po, 1 hr): 0.1497 mM
Mean BHB levels ([2]; 2 mg/kg po, 2 hr): 0.2127 mM
Mean BHB levels ([2]; 2 mg/kg po, 3 hr): 0.339 mM
Mean BHB levels ([2]; 5 mg/kg po, 0 hr): 0.1353 mM
Mean BHB levels ([2]; 5 mg/kg po, 0.5 hr): 0.106 mM
Mean BHB levels ([2]; 5 mg/kg po, 1 hr): 0.111 mM
Mean BHB levels ([2]; 5 mg/kg po, 2 hr): 0.323 mM
Mean BHB levels ([2]; 5 mg/kg po, 3 hr): 0.259 mM
difference of BHB levels by dose or by route of administration ([2]; mouse, 0.5-5 mg/kg po, 1 mg/kg ip): did not differ significantly
time point of highest BHB levels ([2]; mouse, 3 hour time period, po and ip): 3 h
serum BHB levels (effect in words) ([2]; mouse, each dose from 0.5 to 5 mg/kg): elevated

Structure (SMILES): CCN(CC)C(=O)[C@@H]1CCCN(C2CCN(C(=O)c3c4ccccc4cc4ccccc34)CC2)C1 [CP-610431, R-1′-(anthracene-9-carbonyl)-N,N-diethyl-1,4′-bipiperidine-3-carboxamide]
behavior and motor skills (Open Field, Beam Walking, Rota Rod) (MPTP lesioned mice): Improved
number of TH+ neurons (MPTP lesioned mice; substantia nigra): Increased

Structure (SMILES): CCCC(C)(C)CC(=O)OCC(O)CO (stereo not shown) [AC-0417-9, 3,3-Dimethylhexanoate, monoglyceride]
serum BHB levels (effect in words) [3]: elevation; also recorded: elevate
time point of highest BHB levels ([3]; 3 hour time period): 3 h
